Series [1] can be described thus: Pharmacokinetics and brain distribution after single sc dose to mice. It counts as in vivo.
Series [2] deals with MMP-9cat (catalytic domain of human recombinant MMP-9) (Homo sapiens, UniProt P14780). Briefly: MMP inhibition kinetics, MMP-9cat. The series is classed as biochemical. The following applies: slow-binding; Ki calculated from koff/kon.
Series [3] is described as follows: Metabolic stability in male rat liver S9. The series is classed as in vitro ADME.
The mark [4] stands for this setting: female, C57Bl/6J, mouse, in vivo, 25 mg/kg.
The mark [5] stands for this setting: female, C57Bl/6J, mouse, in vivo, sc, 25 mg/kg.

Each structure is given as a SMILES string.

The values that follow come from article PMC3880597 (Journal of medicinal chemistry, 2013).

As usually defined, the AUC(0-inf) is the area under the concentration-time curve extrapolated to infinity. A high value points to more exposure. Usually AUC(0-t) stands for the area under the concentration-time curve up to a stated or last time point. A lower AUC(0-t) goes with less exposure. By Tmax is commonly meant the time from dosing to the highest level. The half-life is the time in which the quantity being followed falls by half. High values mean slow decline, low ones rapid decline.

Sequence of MMP-9cat (catalytic domain of human recombinant MMP-9) (P14780 107-444 limits assumed): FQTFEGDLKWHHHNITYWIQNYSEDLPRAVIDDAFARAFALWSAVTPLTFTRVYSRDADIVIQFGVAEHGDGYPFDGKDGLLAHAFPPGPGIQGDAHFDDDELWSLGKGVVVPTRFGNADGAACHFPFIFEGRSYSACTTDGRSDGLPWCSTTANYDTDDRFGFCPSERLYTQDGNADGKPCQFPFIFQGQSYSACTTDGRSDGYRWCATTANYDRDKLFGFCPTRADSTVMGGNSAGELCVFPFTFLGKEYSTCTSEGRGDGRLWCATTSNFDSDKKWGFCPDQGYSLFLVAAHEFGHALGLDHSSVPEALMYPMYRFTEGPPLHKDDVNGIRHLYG

`O=S(=O)(CC1CS1)c1ccc(Oc2ccc(O)cc2)cc1` (stereo not drawn) [Compound 2]: the “time of maximal brain level of 2” value in series [1] (after 25 mg/kg sc dose of 5b) was 20 min. Also, the “maximal brain level of 2, molar equivalent” value in series [1] (after 25 mg/kg sc dose of 5b, at 20 min, assuming a density of 1.0 g/mL) stood at 1.35 ± 1.10 µM. Further, the “brain level of 2 at 4 h” value in series [1] (after 25 mg/kg sc dose of 5b, mice) is 0.255 ± 0.0154 pmol/mg. For the same compound, the “maximal plasma concentration of 2” value in series [1] (after 25 mg/kg sc dose of 5b, mice, at 10 min) came to 1.24 ± 0.676 µM. Also, the “maximal brain level of 2” value in series [1] (after 25 mg/kg sc dose of 5b, mice, at 20 min) came out at 1.35 ± 1.10 pmol/mg tissue. In addition, the “t½α, plasma” value in series [1] (compound 2 after 25 mg/kg sc dose of 5b, mice) was 0.688 h. In series [1] (setting [4]), this compound registered a Kp of 1.64 and a concentration at 4 h of 114 ± 14.7 nM. Further, in series [1] (setting [5]), the AUC(0-inf) is 1.17 µM·h, the AUC(0-t) was 0.9 µM·h and the Tmax was 0.167 h. This compound had a half-life in series [1] (female, C57Bl/6J, mouse, in vivo, sc, 25 mg/kg, t½β, brain) of 8.88 h. In series [1] (female, C57Bl/6J, mouse, in vivo, sc, 25 mg/kg, t½β, plasma), this compound showed a half-life of 7.7 h. Further, the half-life in series [1] (female, C57Bl/6J, mouse, in vivo, sc, terminal half-life in brain) is 8.9 h. In series [1] (female, C57Bl/6J, mouse, in vivo, sc, terminal half-life in plasma), this compound had a half-life of 7.7 h. For the same compound, in series [1] (mouse, in vivo, sc, 25 mg/kg), the “AUC0-last, brain” value turned out to be 88.8 pmol·min/mg and the “AUC0-∞, brain” value is recorded as 129 pmol·min/mg.

For `CCOC(=O)Oc1ccc(Oc2ccc(S(=O)(=O)CC3CS3)cc2)cc1` (stereo not drawn) [Compound 4b, Ethyl (4-(4-((thiiran-2-ylmethyl)sulfonyl)phenoxy)phenyl) carbonate], the “Ki (inhibition constant) against MMP-9cat” value in series [2] was “comparable inhibition constants against MMP-9cat as ND-322”. Further, the “time to complete hydrolysis to compound 2” value in series [3] is at most 5 min.

Regarding `CCNC(=O)Oc1ccc(Oc2ccc(S(=O)(=O)CC3CS3)cc2)cc1` (stereo not drawn) [Compound 5b, 4-(4-((Thiiran-2-ylmethyl)sulfonyl)phenoxy)phenyl ethylcarbamate], in series [1] (after 25 mg/kg sc dose of 5b, all time points), the “level of 5b in plasma or brain” value is on record as “not quantifiable”.

For the compound `CCNC(=O)Nc1ccc(Oc2ccc(S(=O)(=O)CC3CS3)cc2)cc1` (stereo not drawn) [Compound 6b, 1-Ethyl-3-(4-(4-((thiiran-2-ylmethyl)sulfonyl)phenoxy)phenyl)urea], in series [1] (6b after 25 mg/kg sc dose of 6b), the “elimination half-life in brain relative to plasma” value came out at 3.3 fold. In series [1] (after 25 mg/kg sc dose of 6b), the “hydrolysis of 6b to give compound 3 in plasma and brain” value is “not observed”; the “time of maximal brain level of 6b” value amounted to 10 min.

Regarding `CCOC(=O)Nc1ccc(Oc2ccc(S(=O)(=O)CC3CS3)cc2)cc1` (stereo not drawn) [Compound 7b, Ethyl (4-(4-((thiiran-2-ylmethyl)sulfonyl)phenoxy)phenyl)carbamate], the “Ki (inhibition constant) against MMP-9cat” value in series [2] is “comparable inhibition constants against MMP-9cat as ND-322”.
